Source: patent US8980877B2, “Spirocyclic derivatives as histone deacetylase inhibitors” (DAC S.R.L., priority 2008, dated 2015)

Columns and labels:
[1] = system: HDAC (nuclear fraction of Hela cells); assay: Assay of enzyme inhibition of HDAC (BIOMOL Kit); assay type: biochemical; conditions: substrate 200 μM, 15 min at RT, fluorescence
Description: The in-vitro activity of HDAC inhibitors was assayed using a BIOMOL Kit, according to the instructions from the manufacturer (Biomolecular Research Laborator). 15 μl of 30× diluted nuclear fraction of Hela cells, was diluted to 50 μl with the assay buffer containing the HDAC inhibitor and the substrate (lysine with acetylated amino group on the side chain) at a concentration of 200 μM. The samples were incubated for 15 min at RT and then exposed to a developer (10 min at RT). In this last step a fluorophore was produced, whose fluorescence was measured using an excitation wavelength of 355 nm and an emission at 460 nm. The IC50 was calculated using GraphPad Software.

[2] = system: K562 cells; assay: Cell growth, CellTiter-Glo Luminescent Cell Viability Assay, K562; assay type: cell-based; conditions: Homo sapiens, 72 h incubation, read-out: K562 (antiproliferative assay IC50)
Excerpt: (§1) CellTiter-Glo® Luminescent Cell Viability Assay (Promega) is a homogeneous method of determining the number of viable cells in culture based on quantitation of the present ATP, which indicates the presence of metabolically active cells. The homogeneous assay procedure involves addition of a single reagent (CellTiter-Glo® Reagent) directly to the cells, which leads to cell lysis and generation of a luminescent signal proportional to the amount of the ATP and the number of cells present in culture. The assay relies on the properties of a proprietary thermostable luciferase (Ultra-Glo® recombinant luciferase), which generates a luminescent signal.
(§2) K562, A549, and HCT-116 cells, in exponential growth, were incubated for 72 h with different concentrations of the inhibitors. After 72 h, a volume of CellTiter-Glo® Reagent equal to the volume of cell culture medium was added. The content was mixed for 2 min to induce cell lysis. The luminescence was recorded after further 10 min at RT in order to obtain a stable luminescent signal.
(§3) The IC50 was calculated using GraphPad Software.

[3] = system: A549 cells; assay: Cell growth, CellTiter-Glo Luminescent Cell Viability Assay, A549; assay type: cell-based; conditions: Homo sapiens, 72 h incubation, read-out: A549 (antiproliferative assay IC50)
Excerpt: as §1, §2, §3

[4] = system: HCT-116 cells; assay: Cell growth, CellTiter-Glo Luminescent Cell Viability Assay, HCT-116; assay type: cell-based; conditions: Homo sapiens, 72 h incubation, read-out: HCT116 (antiproliferative assay IC50)
Excerpt: as §1, §2, §3

| Compound | IC50 [1] [nM] | further results |
| --- | --- | --- |
| O=C(/C=C/c1ccc2c(c1)C(=O)CC1(CCN(Cc3ccccc3)C1)O2)NO (racemic) [Example 2, (±)-(E)-3-[1′-Benzyl-4-oxo-spiro(chromane-2,3′-pyrrolidine)-6-yl]-N-hydroxy-acrylamide] | ≤ 100 |  |
| O=C(/C=C/c1ccc2c(c1)C(=O)CC1(CCN(CCc3ccccc3)C1)O2)NO (racemic) [Example 9, (±)-(E)-3-[1′-(2-Phenyl-ethyl)-4-oxo-spiro(chromane-2,3′-pyrrolidine)-6-yl]-N-hydroxy-acrylamide] | ≤ 100 |  |
| Cn1cc(CN2CCC3(CC(=O)c4cc(/C=C/C(=O)NO)ccc4O3)C2)c2ccccc21 (racemic) [Example 10, (±)-(E)-3-[1′(1-Methyl-1H-indol-3-ylmethyl)-4-oxo-spiro(chromane-2,3′-pyrrolidine)-6-yl]-N-hydroxy-acrylamide] | ≤ 100 |  |
| O=C(/C=C/c1ccc2c(c1)C(=O)CC1(CCCN(Cc3ccccc3)C1)O2)NO (racemic) [Example 13, (±)-(E)-3-[1′Benzyl-4-oxo-spiro(chromane-2,3′-piperidine)-6-yl]-N-hydroxy-acrylamide] | ≤ 100 |  |
| O=C(/C=C/c1ccc2c(c1)C(=O)CC1(CCCN(Cc3ccc(F)cc3)C1)O2)NO (racemic) [Example 19, (±)-(E)-3-[1′(4-Fluoro-benzyl)-4-oxo-spiro(chromane-2,3′-piperidine)-6-yl]-N-hydroxy-acrylamide] | ≤ 100 |  |
| O=C(/C=C/c1ccc2c(c1)C(=O)CC1(CCCN(CCc3ccccc3)C1)O2)NO (racemic) [Example 20, (±)-(E)-3-[1′-(2-Phenyl-ethyl)-4-oxo-spiro(chromane-2,3′-piperidine)-6-yl]-N-hydroxy-acrylamide] | ≤ 100 |  |
| O=C(/C=C/c1ccc2c(c1)C(=O)CC1(CCCN(Cc3ccccc3)CC1)O2)NO (racemic) [Example 23, (±)-(E)-3-[1′-Benzyl-4-oxo-spiro(chromane-2,4′-azepane)-6-yl]-N-hydroxy-acrylamide] | ≤ 100 |  |
| O=C(/C=C/c1ccc2c(c1)C(=O)CC1(CCCN(CCc3ccccc3)CC1)O2)NO (racemic) [Example 28, (±)-(E)-3-[1′(2-Phenyl-ethyl)-4-oxo-spiro(chromane-2,4′-azepane)-6-yl]-N-hydroxy-acrylamide] | ≤ 100 |  |
| O=C(/C=C/c1ccc2c(c1)C(=O)CC1(CCCN(Cc3ccccc3)C1)O2)NO (single isomer, unassigned; (+)) [Example 18, (+)-(E)-3-[1′-Benzyl-4-oxo-spiro(chromane-2,3′-piperidine)-6-yl]-N-hydroxy-acrylamide] | 100 to 1000 |  |
| O=C(/C=C/c1ccc2c(c1)C(=O)CC1(CCN(Cc3ccccc3)C1)O2)NO (single isomer, unassigned; (-)) [Example 3, (−)-(E)-3-[1′-Benzyl-4-oxo-spiro(chromane-2,3′-pyrrolidine)-6-yl]-N-hydroxy-acrylamide] | ≤ 100 |  |
| O=C(/C=C/c1ccc2c(c1)C(=O)CC1(CCCN(Cc3ccccc3)C1)O2)NO (single isomer, unassigned; (-)) [Example 17, (−)-(E)-3-[1′-Benzyl-4-oxo-spiro(chromane-2,3′-piperidine)-6-yl]-N-hydroxy-acrylamide] | ≤ 100 |  |

The next lines start with results.

| IC50 [1] [nM] | Compound | further results |
| --- | --- | --- |
| ≤ 100 | O=C(/C=C/c1ccc2c(c1)C(=O)NC1(CCCN(Cc3ccccc3)C1)O2)NO (racemic) [Example 40, (±)-(E)-3-{1′-Benzyl-3,4-dihydro-4-oxo-spiro[2H-(1,3)-benzoxazine-2,3′-piperidin]-6-yl}-N-hydroxy-acrylamide] |  |
| ≤ 100 | O=C(/C=C/c1ccc2c(c1)C(=O)NC1(CCCN(CCc3ccccc3)C1)O2)NO (racemic) [Example 43, (±)-(E)-3-{1′-(2-Phenyl-ethyl)-3,4-dihydro-4-oxo-spiro[2H-(1,3)-benzoxazine-2,3′-piperidin]-6-yl}-N-hydroxy-acrylamide] |  |
| ≤ 100 | O=C(/C=C/c1ccc2c(c1)C(=O)CC1(CCCN(C3CCCC3)C1)O2)NO (racemic) [Example 50, (±)-(E)-3-[1′-Cyclopentyl-4-oxo-spiro(chromane-2,3′-piperidine)-6-yl]-N-hydroxy-acrylamide] |  |
| ≤ 100 | O=C(/C=C/c1ccc2c(c1)C(=O)CC1(CN(Cc3ccccc3)C1)O2)NO [Example 31, (E)-3-[1′-Benzyl-4-oxo-spiro(chromane-2,3′-azetidine)-6-yl]-N-hydroxy-acrylamide] |  |
| ≤ 100 | O=C(/C=C/c1ccc2c(c1)C(=O)CC1(CN(C(=O)c3ccccc3)C1)O2)NO [Example 37, (E)-3-[1′-Benzoyl-4-oxo-spiro(chromane-2,3′-azetidine)-6-yl]-N-hydroxy-acrylamide] |  |
| ≤ 100 | Cn1cc(CN2CC3(CC(=O)c4cc(/C=C/C(=O)NO)ccc4O3)C2)c2ccccc21 [Example 44, (E)-3-[1′-(1-Methyl-1H-indol-3-ylmethyl)-4-oxo-spiro(chromane-2,3′-azetidine)-6-yl]-N-hydroxy-acrylamide] |  |
| ≥ 1000 | CO/N=C1/CC2(CCCN(Cc3ccc(F)cc3)C2)Oc2ccc(/C=C/C(=O)NO)cc21 (centres unmarked) [Example 53, (E)-3-(1′-(4-Fluorobenzyl)-4-(methoxyimino)spiro[chroman-2,3′-piperidine]-6-yl)-N-hydroxyacrylamide] | IC50 [2]: 1000 to 3000 nM; IC50 [3]: ≥ 3000 nM; IC50 [4]: 1000 to 3000 nM |
| ≤ 100 | O=C(/C=C/c1ccc2c(c1)C(=NO)CC1(CCCN(C3CCCC3)C1)O2)NO (centres unmarked) [Example 54, (E)-3-(1′-Cyclopentyl-4-(hydroxyimino)spiro[chroman-2,3′-piperidine]-6-yl)-N-hydroxyacrylamide] |  |
| ≥ 1000 | O=C(/C=C/c1ccc2c(c1)/C(=N\OCc1ccccc1)CC1(CCCN(CCc3ccccc3)C1)O2)NO (centres unmarked) [Example 55, (E)-3-(4-(Benzyloxyimino)-1′-phenethylspiro[chroman-2,3′-piperidine]-6-yl)-N-hydroxyacrylamide] | IC50 [2]: ≤ 1000 nM; IC50 [3]: 1000 to 3000 nM; IC50 [4]: ≤ 1000 nM |
